Results reported in US8183235B2, “Dihydronaphthalene compound and use thereof” (Tokyo University of Science Educational Foundation …, priority 2007, dated 2012).
Where two headings read alike, the source gives them in different places.

What was measured:
20S proteasome = 20S proteasome (Homo sapiens, UniProt P28072+P28074+Q99436); assay: Proteasome inhibition activity, overall judgement; format: biochemical; conditions: for The evaluations (proteasome inhibition activity): overall judgement positive/negative; for Proteasome selectivity: judgement
U251 = assay: Inhibition of propagation of central nervous system cancer cells (sulforhodamin B); format: cell-based; conditions: Homo sapiens, U-251, 48 h; U251, two days of cultivation
Text: (§1) As a comparison for the inhibition activity, tamoxifen citrate (TAM) was used. In the Table, the concentration units are μM.

SNB-75 = assay: as above; format: cell-based; conditions: Homo sapiens, 48 h; SNB-75, two days of cultivation
Text: as §1

SNB-78 = assay: as above; format: cell-based; conditions: Homo sapiens, 48 h; SNB-78, two days of cultivation
Text: as §1

SF-295 = assay: as above; format: cell-based; conditions: Homo sapiens, 48 h; SF-295, two days of cultivation
Text: as §1

SF-539 = assay: as above; format: cell-based; conditions: Homo sapiens, 48 h; SF-539, two days of cultivation
Text: as §1

SF-268 = assay: as above; format: cell-based; conditions: Homo sapiens, 48 h; SF-268, two days of cultivation
Text: as §1

HT-29 = assay: Proliferation inhibition of colon cancer cells; format: cell-based; conditions: Homo sapiens
Protocol: as §1
(§2) In the same way as in Example 9, the proliferation inhibition activity of naforidaifens A to G was measured with respect to five types of colon cancer cells (HCC2998, KM-12, HT-29, HCT-15, and HCT-116). In the Table, the concentration units are μM.

HCT-116 = assay: Proliferation inhibition of colon cancer cells; format: cell-based; conditions: Homo sapiens
Protocol: as §1, §2

HCT-15 = assay: Proliferation inhibition of colon cancer cells; format: cell-based; conditions: Homo sapiens
Protocol: as §1, §2

KM-12 = assay: Proliferation inhibition of colon cancer cells; format: cell-based; conditions: Homo sapiens, KM12
Protocol: as §1, §2

HCC2998 = assay: Proliferation inhibition of colon cancer cells; format: cell-based; conditions: Homo sapiens, HCC 2998
Protocol: as §1, §2

[1] = biological target: 20S proteasome chymotrypsin-like activity (Homo sapiens, UniProt P28074); assay: Chymotrypsin-like activity inhibition test; format: biochemical; conditions: for remaining activity at 10 µM: read-out: % Control, Chymotrypsin-like Activity
[2] = system: central nervous system cancer cells; assay: Proliferation inhibition, central nervous system cancer cell panel (summary); format: cell-based; conditions: read-out: cytotoxic activity (extent of effective concentration)
Text: as §1

OVCAR-4 = assay: Proliferation inhibition of ovarian cancer cells; format: cell-based; conditions: Homo sapiens
Protocol: as §1
(§3) In the same way as in Example 9, the proliferation inhibition activity of naforidaifens A to G was measured with respect to five types of ovarian cancer cells (OVCAR-3, OVCAR-4, OVCAR-5, OVCAR-8, AND SK-OV-3). In the Table, the concentration units are μM.

OVCAR-3 = assay: Proliferation inhibition of ovarian cancer cells; format: cell-based; conditions: Homo sapiens
Protocol: as §1, §3

SK-OV-3 = assay: Proliferation inhibition of ovarian cancer cells; format: cell-based; conditions: Homo sapiens
Protocol: as §1, §3

OVCAR-5 = assay: Proliferation inhibition of ovarian cancer cells; format: cell-based; conditions: Homo sapiens
Protocol: as §1, §3

OVCAR-8 = assay: Proliferation inhibition of ovarian cancer cells; format: cell-based; conditions: Homo sapiens
Protocol: as §1, §3

MKN28 = assay: Proliferation inhibition of stomach cancer cells; format: cell-based; conditions: Homo sapiens, MKN-28
Protocol: as §1
(§4) In the same way as in Example 9, the proliferation inhibition activity of naforidaifens A to G was measured with respect to six types of stomach cancer cells (St-4, MKN1, MKN7, MKN28, MKN45, MKN74). In the Table, the concentration units are μM.

St-4 = assay: Proliferation inhibition of stomach cancer cells; format: cell-based; conditions: Homo sapiens
Protocol: as §1, §4

MKN1 = assay: Proliferation inhibition of stomach cancer cells; format: cell-based; conditions: Homo sapiens, MKN-1
Protocol: as §1, §4

MKN7 = assay: Proliferation inhibition of stomach cancer cells; format: cell-based; conditions: Homo sapiens, MKN-7
Protocol: as §1, §4

MKN45 = assay: Proliferation inhibition of stomach cancer cells; format: cell-based; conditions: Homo sapiens, MKN-45
Protocol: as §1, §4

MKN74 = assay: Proliferation inhibition of stomach cancer cells; format: cell-based; conditions: Homo sapiens, MKN-74
Protocol: as §1, §4

Cathepsin B = assay: Cathepsin-like activity inhibition test; format: biochemical
Protocol: Cathepsin-Like Activity Inhibition Test
(§5) 1) To 20S proteasome, naforidaifen B adjusted to a concentration of 10 μM was added, and incubated at 30° C. for 10 min.
2) To the above test system, fluorescence labeled cathepsin including a 20S proteasome segmenting sequence was added, and reacted for 1 hr at 30° C.
(§6) 3) The fluorescent substance (AMC) released by the above reaction was excited with 360 nm light and assayed with 460 nm light.
(§7) 4) A test system to which naforidaifen B was not added was measured in the same way as (1) to (3) above, and the enzyme activity for the case of using naforidaifen B was measured.
(§8) 5) Stepwise diluted solutions containing naforidaifen B were prepared, and after carrying out the same evaluations as in (1) to (4), the 50% inhibition concentration (IC50) was determined.
6) As a positive control of the enzyme activity, the known proteasome inhibitor Clasto-Lactacystin β-Lactone (Lactacystin activator) and MGI32 were evaluated with the steps (1) to (5).

α-chymotrypsin = α-chymotrypsin (Bos taurus, UniProt P00766); assay: α-Chymotrypsin-like activity inhibition test; format: biochemical
Protocol: α-Chymotrypsin-Like Activity Inhibition Test
as §5
2) To the above test system, fluorescence labeled α-chymotrypsin including a 20S proteasome segmenting sequence was added, and reacted for 1 hr at 30° C.
as §6, §7, §8
6) As a positive control of the enzyme activity, the well-known proteasome inhibitor Clasto-Lactacystin β-Lactone (Lactacystin activator) and MGI32 were evaluated with the steps (1) to (5).

[3] = biological target: 20S proteasome trypsin-like activity (Homo sapiens, UniProt Q99436); assay: Trypsin-like activity inhibition test; format: biochemical; conditions: for remaining activity at 10 µM: read-out: % Control, Trypsin-like Activity
[4] = biological target: 20S proteasome caspase-like activity (Homo sapiens, UniProt P28072); assay: Caspase-like activity inhibition test; format: biochemical; conditions: for remaining activity at 10 µM: read-out: % Control, Caspase-like Activity
ovarian cancer cells = assay: Proliferation inhibition, ovarian cancer cell panel (summary); format: cell-based; conditions: all of the five types of ovarian cancer cell lines; read-out: effective concentration
Protocol: as §1, §3

stomach cancer cells = assay: Proliferation inhibition, stomach cancer cell panel (summary); format: cell-based; conditions: all of the six types of stomach cancer cell lines; read-out: effective concentration
Protocol: as §1, §4

colon cancer cells = assay: Proliferation inhibition, colon cancer cell panel (summary); format: cell-based; conditions: all of the five types of colon cancer cell lines; read-out: effective concentration
Protocol: as §1, §2

[5] = in general with respect to various central nervous system cancer cells

| Structure (SMILES) | The evaluations (proteasome inhibition activity) (20S proteasome) | GI50 (U251) [nM] | GI50 (SNB-75) [nM] | GI50 (SNB-78) [nM] | GI50 (SF-295) [nM] | GI50 (SF-539) [nM] | GI50 (SF-268) [nM] | GI50 (HT-29) [nM] | GI50 (HCT-116) [nM] | GI50 (HCT-15) [nM] | GI50 (KM-12) [nM] | GI50 (HCC2998) [nM] | IC50 [1] [nM] | GI50 (OVCAR-4) [nM] | GI50 (OVCAR-3) [nM] | GI50 (SK-OV-3) [nM] | GI50 (OVCAR-5) [nM] | GI50 (OVCAR-8) [nM] | GI50 (MKN28) [nM] | GI50 (St-4) [nM] | further results |
| --- | --- | --- | --- | --- | --- | --- | --- | --- | --- | --- | --- | --- | --- | --- | --- | --- | --- | --- | --- | --- | --- |
| CN(C)CCOc1ccc(C2=C(c3ccccc3)CCc3cc(OCCN(C)C)ccc32)cc1 [Naforidaifen A, 4-[4-(2-dimethylamino-1-yl-ethoxy)phenyl]-7-(2-dimethylamino-1-yl-ethoxy)-3-phenyl-1,2-dihydronaphthalene] | negative | 1450 | 1480 | 1820 | 1740 | 1550 | 1950 | 759 | 1100 | 1660 | 1860 | 1480 | > 10000 | 2140 | 1620 | 2290 | 1550 | 2880 | 1820 | 1480 | remaining activity at 10 µM [1]: 99.5%; IC50 [2]: 1400 to 1900 nM; GI50 (MKN1): 1480 nM; GI50 (MKN7): 1580 nM; GI50 (MKN45): 1740 nM; GI50 (MKN74): 1410 nM |
| c1ccc(C2=C(c3ccc(OCCN4CCCCC4)cc3)c3ccc(OCCN4CCCCC4)cc3CC2)cc1 [Naforidaifen C, 4-[4-(2-piperidine-1-yl-ethoxy)phenyl]-7-(2-piperidine-1-yl-ethoxy)-3-phenyl-1,2-dihydronaphthalene] | positive | 1480 | 1510 | 1820 | 1740 | 1480 | 1740 | 550 | 1170 | 1380 | 1820 | 1350 | 3200 | 2090 | 1660 | 2040 | 1260 | 2400 | 2510 | 1580 | Proteasome selectivity (20S proteasome): present; remaining activity at 10 µM [1]: 25.9%; IC50 [2, 5]: 1400 to 1900 nM; Cathepsin B inhibition (Cathepsin B): none; GI50 (MKN1): 1660 nM; GI50 (MKN7): 1550 nM; GI50 (MKN45): 2140 nM; GI50 (MKN74): 1200 nM; α-chymotrypsin inhibition (α-chymotrypsin): none; IC50 [3]: > 10000 nM; remaining activity at 10 µM [3]: 196%; IC50 [4]: 5100 nM; remaining activity at 10 µM [4]: 31.3% |
| c1ccc(C2=C(c3ccc(OCCN4CCCCCC4)cc3)c3ccc(OCCN4CCCCCC4)cc3CC2)cc1 [Naforidaifen F, 4-[4-(2-hexahydro-1H-azepin-1-yl-ethoxy)phenyl]-7-(2-hexahydro-1H-azepin-1-yl-ethoxy)-3-phenyl-1,2-dihydronaphthalene] | positive | 1480 | 1740 | 1700 | 1780 | 1660 | 1700 | 501 | 1230 | 1230 | 1590 | 1070 | 4300 | 1780 | 1410 | 1910 | 1320 | 2000 | 1820 | 1580 | Proteasome selectivity (20S proteasome): present; remaining activity at 10 µM [1]: 34.2%; IC50 (ovarian cancer cells): 1200 to 1900 nM; IC50 (stomach cancer cells): 1100 to 1800 nM; Cathepsin B inhibition (Cathepsin B): none; GI50 (MKN1): 1550 nM; GI50 (MKN7): 1230 nM; GI50 (MKN45): 1580 nM; GI50 (MKN74): 1170 nM; α-chymotrypsin inhibition (α-chymotrypsin): none; IC50 [3]: > 10000 nM; remaining activity at 10 µM [3]: 251%; IC50 (colon cancer cells): 500 to 1500 nM; IC50 [4]: 5100 nM; remaining activity at 10 µM [4]: 39.1% |
| CN(C)CCCOc1ccc(C2=C(c3ccccc3)CCc3cc(OCCCN(C)C)ccc32)cc1 [Naforidaifen G, 4-[4-(3-dimethylamino-1-yl-propoxy)phenyl]-7-(3-dimethylamino-1-yl-propoxy)-3-phenyl-1,2-dihydronaphthalene] | negative | 1480 | 1620 | 1780 | 1780 | 1480 | 1580 | 490 | 1100 | 1290 | 1660 | 1290 | > 10000 | 1780 | 1510 | 1740 | 1290 | 1860 | 1620 | 1480 | remaining activity at 10 µM ([1]; Concentration 10 μM): 105%; IC50 [2, 5]: 1400 to 1900 nM; IC50 (ovarian cancer cells): 1200 to 1900 nM; IC50 (stomach cancer cells): 1100 to 1800 nM; GI50 (MKN1): 1510 nM; GI50 (MKN7): 1320 nM; GI50 (MKN45): 1480 nM; GI50 (MKN74): 1150 nM |
